Test results from PMC11292626, “5-Fluoroindole Reduces the Bacterial Burden in a Murine Model of Mycobacterium tuberculosis Infection” (ACS Omega, 2024).
Marks after values point to notes of the source that are not given here.

Columns and labels:
[1] = system: Mycobacterium tuberculosis H37Rv Strain; assay: MIC by resazurin reduction microplate assay (REMA), H37Rv; format: cell-based; settings: Mtb H37Rv; for MIC: REMA
Mtb H37Rv strain = assay: In vivo model of TB infection in mice; settings: 150 μmol/kg, gavage, single daily dose, 15 administrations
[2] = most frequent value of three independent assays
[3] = Mycobacterium tuberculosis, H37RV, most frequent value of three independent assays

Compound	MIC [1, 3] [µM]	also measured
Clc1ccc2[nH]ccc2c1 [Compound 2, 5-chloroindole]	> 264	MIC [1, 2]: >263.9 µM
O=[N+]([O-])c1ccc2[nH]ccc2c1 [Compound 5]	> 247	
N[C@@H](Cc1c[nH]c2ccc(F)cc12)C(=O)O [5-fluorotryptophan, reference compound]	> 90	MIC ([1]; Mycobacterium tuberculosis, H37RV): > 20 µg/mL
NNC(=O)c1ccncc1 [INH, isoniazid, reference compound]	2.3	lungs mean log10 CFU/mL ± SD (Mtb H37Rv strain): 2.43 ± 0.40***^, ### log10 CFU/mL; spleen weight mean g ± SD (Mtb H37Rv strain): 0.23 ± 0.04 g
Fc1cccc2[nH]ccc12 [Compound 8]	18.5	reduction of activity compared to 5-FI (MIC ratio) [1]: approximately 4 fold
Oc1ccc2[nH]ccc2c1 [Compound 6]	> 300	
Fc1cccc2cc[nH]c12 [Compound 10]	148	reduction of activity compared to 5-FI (MIC ratio) [1]: > 31 fold
Brc1ccc2[nH]ccc2c1 [Compound 3, 5-bromoindole]	> 204	MIC [1, 2]: >204.0 µM
COc1ccc2[nH]ccc2c1 [Compound 7]	> 272	
CO[C@H]1/C=C/O[C@@]2(C)Oc3c(C)c(O)c4c(O)c(c(/C=N/N5CCN(C)CC5)c(O)c4c3C2=O)NC(=O)/C(C)=C\C=C\[C@H](C)[C@H](O)[C@@H](C)[C@@H](O)[C@@H](C)[C@H](OC(C)=O)[C@@H]1C [RIF, rifampin, reference compound]	0.09	
Fc1ccc2cc[nH]c2c1 [Compound 9]	74	reduction of activity compared to 5-FI (MIC ratio) [1]: more than 15 fold
N#Cc1ccc2[nH]ccc2c1 [Compound 4]	> 281	
